The values below come from US4317768A, “Dihydropyridine derivatives as stabilizers for vinyl chloride polymers” (priority 1977, dated 1982).

Experiment [1] is described as follows: Comparison with 1,4-butanediol-β-aminocrotonate and methyl-β-aminocrotonate, rigid co-polymer, 185° C. To be noted: 0.5 part. As to the method: (a) Comparison with 1,4-butanediol-β-aminocrotonate and with methyl-β-aminocrotonate.
The following rigid co-polymer was prepared:
The sheets were heated in a ventilated oven at 185° C. and the following results were obtained: […]

A short description of experiment [2]: Photostabilizing power, PVC plates exposed to the sun, GARDNER scale. As for the experimental part:
(§1) The photostabilizing power of the compounds of the invention was studied by exposing to the sun polyvinyl chloride plates which had been stabilized either by a dihydropyridine of the invention or by 2-phenyl-indole, or again by 2-(3'-methoxy-4'-hydroxy)-indole. This last product is an extremely valuable thermostabilizer for thermoplastic resins and is described in British Pat. No. 1,489,685.
(§2) The resin given hereunder was prepared by mixing on cylinders at 160° C.:
(§3) The plates of stabilized polyvinyl chloride, together with a plate which had not been stabilized, were stood in the sun under the same conditions and at the same time. Their colour was measured after 6 hours and 12 hours of exposure.
(§4) The coloration of the plates was determined according to two methods:
On the plates themselves, following the GARDNER scale, as in the section on thermostability,
The sign + means that the coloration lies between the lower unit and the upper half-unit. Thus, 3+ means that the coloration lies between 3 and 3.5. Similarly, the sign - means that the coloration lies between the lower half-unit and the upper unit.

Experiment [3] is described as follows: Photostabilizing power, tetrahydrofuran solution of plates exposed to the sun, French Pharmacopeia. As to the method: as §1, §2, §3, §4
On a solution of these plates in tetrahydrofuran, the coloration of th solution being measured according to the French Pharmacopeia (IXth edition, II-338).

Experiment [4] in a line: Static thermostability (GARDNER method), rigid PVC sheets, 185° C., 0.3 part stabilizer. As to the method:
(§5) This study was carried out according to the GARDNER method, described in British Pat. No. 1,489,685.
(§6) The reference substance was 2-phenyl-indole, a well-known and widely used stabilizer.
(§7) The stabilizer (dihydropyridine or 2-phenyl-indole) and the other usual ingredients were mixed with powdered vinyl resins and the mixtures were calendered at a temperature of 160° C. to give rigid sheets.
(§8) The sheets were then heated in a thermostated oven (185° C. or 210° C.) for different intervals of time until incipient carbonization.
(§9) The coloration of the samples was compared to a standard scale of coloration, known as the GARDNER scale and was expressed in terms of the reference figures of the GARDNER scale.
(§10) This study was carried out with the following resin:
(§11) Polyvinyl chloride resin
(§12) SL 2016 is a solution of zinc-2-ethyl-hexanoate in a mixture of hydrocarbons boiling between 158° C. and 184° C.
A second trial was performed at a temperature of 185° C., with a resin containing 0.3 part of stabilizer, the samples being removed from the oven every 6 minutes over a period of 24 minutes, then every 3 minutes until the 42nd minute (or until carbonization).

Experiment [5] is described as follows: Static thermostability (GARDNER method), rigid PVC sheets, 185° C., equimolecular quantities. To be noted: 1.55×10^-3 mol. As for the experimental part:
as §5, §6, §7, §8, §9, §10, §11, §12
Finally, a trail was performed at 185° C., with resins containing equimolecular quantities of the dihydropyridines or of 2-phenyl-indole, namely 1.55×10^-3 mol. In this case too, the samples were removed from the oven every 6 minutes over a period of 24 minutes and then every 3 minutes until the 42nd minute (or until carbonization).

Experiment [6] is described as follows: Static thermostability (GARDNER method), rigid PVC sheets, 210° C., 0.3 part stabilizer. As to the method: as §5, §6, §7, §8, §9, §10, §11, §12
The first trial was carried out at 210° C. with a resin containing 0.3 part by weight of stabilizer, the sheets being removed from the oven every three minutes over a period of 21 minutes.

Experiment [7] is described as follows: Comparison with stabilizer G1, rigid co-polymer, 0.5 part, 185° C. The source says: (b) Comparison with stabilizer G1
Stabilizer G1 is a mixture of 1,4-butanediol-β-aminocrotonate and of β-aminocrotonate of alcohols containing from 16 to 18 carbon atoms.

A short description of experiment [8]: Photostabilizing power, sheets exposed to the sun, co-polymer (a). As for the experimental part: The sheets were exposed to the sun and their colorations were also determined according to the GARDNER method.

For the compound `CC(N)=CC(=O)OCCCCOC(=O)C=C(C)N` [1,4-butanediol-β-aminocrotonate, reference compound], the “coloration, GARDNER scale” value in experiment [1] (0 min) came to 1; in experiment [1] (2 min) it was 1; in experiment [1] (4 min), 4; in experiment [1] (6 min), 10; in experiment [1] (8 min), 13; in experiment [1] (10 min), 15. Further, the “coloration, GARDNER scale” value in experiment [1] (12 min) came to 18.
As to `COc1cc(-c2cc3ccccc3[nH]2)ccc1O` [2-(3'-Methoxy-4'-hydroxy-phenyl)-indole, reference compound], the “Coloration of the plates GARDNER” value in experiment [2] (exposure to sun 0) was 1; in experiment [2] (exposure to sun 6h), 4; in experiment [2] (exposure to sun 12h), 8. Also, the “Coloration of the plates FRENCH PHARMACOPEIA” value in experiment [3] (exposure to sun 6h) is recorded as “B4 to JB4”; in experiment [3] (exposure to sun 12h), “B3 to JB3”.
In the case of `CC1=C(C(=O)OCc2ccccc2Cl)CC(C(=O)OCc2ccccc2Cl)=C(C)N1` [Compound 5, 2,6-Dimethyl-3,5-di-(2'-carbochloro-benzyloxy)-1,4-dihydropyridine], the “coloration, GARDNER scale” value in experiment [4] (0 min) came out at 1; in experiment [4] (6 min), 1; in experiment [4] (12 min), 2; in experiment [4] (18 min) it was 9; in experiment [4] (24 min) it was 11; in experiment [4] (27 min) it was 11. Also, the “coloration, GARDNER scale” value in experiment [4] (30 min) is on record as 13; in experiment [4] (33 min) it was 14; in experiment [4] (36 min) it was 14; in experiment [4] (39 min), “Burnt”; in experiment [5] (0 min), 1; in experiment [5] (6 min), 1. For the same compound, the “coloration, GARDNER scale” value in experiment [5] (12 min) is listed as 1; in experiment [5] (18 min), 5; in experiment [5] (24 min) it was 10; in experiment [5] (27 min), 11; in experiment [5] (30 min), 13; in experiment [5] (33 min), 14. Also, the “coloration, GARDNER scale” value in experiment [5] (36 min) was 15; in experiment [5] (39 min), “Burnt”; in experiment [6] (0 min), 1; in experiment [6] (3 min) it was 1; in experiment [6] (6 min), 2; in experiment [6] (9 min), 3. The “coloration, GARDNER scale” value in experiment [6] (12 min) is recorded as 6; in experiment [6] (15 min), 10.5; in experiment [6] (18 min), “Burnt”. Moreover, the “coloration of the resins, in words” value in experiment [6] (0 to 3 minutes) is on record as “considerably less”.
On to `CC1=C(C(=O)OCc2ccccc2C)CC(C(=O)OCc2ccccc2C)=C(C)N1` [Compound 6, 2,6-Dimethyl-3,5-di-(2'-carbomethyl-benzyloxy)-1,4-dihydropyridine], for which the “coloration, GARDNER scale” value in experiment [4] (0 min) amounted to 1; in experiment [4] (6 min), 1; in experiment [4] (12 min), 2; in experiment [4] (18 min), 9; in experiment [4] (24 min), 11; in experiment [4] (27 min), 11. Further, the “coloration, GARDNER scale” value is recorded as 13 in experiment [4] (30 min); 14 in experiment [4] (33 min); “Burnt” in experiment [4] (36 min); 1 in experiment [5] (0 min); 1 in experiment [5] (6 min); 2 in experiment [5] (12 min). The “coloration, GARDNER scale” value is 4 in experiment [5] (18 min); 10 in experiment [5] (24 min); 13 in experiment [5] (27 min); “B” in experiment [5] (30 min); 1 in experiment [6] (0 min); 1 in experiment [6] (3 min). Moreover, the “coloration, GARDNER scale” value in experiment [6] (6 min) is recorded as 1.5; in experiment [6] (9 min), 3; in experiment [6] (12 min) it was 4; in experiment [6] (15 min), 7; in experiment [6] (18 min) it was “Burnt”.
`CCCCOCCOC(=O)C1=C(C)NC(C)=C(C(=O)OCCOCCCC)C1` [Compound 27]: the “coloration, GARDNER scale” value in experiment [7] (0 min) was found to be 1; in experiment [7] (2 min), 1; in experiment [7] (4 min), 4; in experiment [7] (6 min), 7; in experiment [7] (8 min), 12.5; in experiment [7] (10 min) it was 17. Besides, the “coloration, GARDNER scale” value was 1 in experiment [6] (0 min); 1 in experiment [6] (3 min); 1 in experiment [6] (6 min); 2 in experiment [6] (9 min); 5 in experiment [6] (12 min); 14 in experiment [6] (15 min). Also, the “coloration, GARDNER scale” value in experiment [6] (18 min) is “Burnt”. For the same compound, the “Colour in GARDNER degrees” value in experiment [8] (After 24 hours) stood at 2 GARDNER degrees; in experiment [8] (Time 0), 1 GARDNER degrees.
As to `COC(=O)C1=C(C)NC(C)=C(C(=O)OC)C1C` [Compound 29, 2,4,6-Trimethyl-3,5-dicarbomethoxy-1,4-dihydropyridine], the “Coloration of the plates GARDNER” value in experiment [2] (exposure to sun 6h) is given as 3; in experiment [2] (exposure to sun 12h) it was 5. For the same compound, the “Coloration of the plates FRENCH PHARMACOPEIA” value is on record as “JV6” in experiment [3] (exposure to sun 0), “JV5” in experiment [3] (exposure to sun 6h) and “JV4” in experiment [3] (exposure to sun 12h). Also, the “coloration, GARDNER scale” value was found to be 1 in experiment [6] (0 min); 2 in experiment [6] (3 min); 3 in experiment [6] (6 min); 6 in experiment [6] (9 min); 7 in experiment [6] (12 min); 10 in experiment [6] (15 min). The “coloration, GARDNER scale” value in experiment [6] (18 min) is on record as 10.5; in experiment [6] (21 min), “Burnt”.
`COC(=O)/C=C(/C)N` [Methyl-β-aminocrotonate, methyl-β-aminocrotonate, reference compound]: the “coloration, GARDNER scale” value in experiment [1] (0 min) was 1; in experiment [1] (2 min) it was 1; in experiment [1] (4 min), 5; in experiment [1] (6 min), 12; in experiment [1] (8 min), 14; in experiment [1] (10 min), 17. Also, the “coloration, GARDNER scale” value in experiment [1] (12 min) stood at 18.
